Measurements published in patent US7973062B2, “Androgen receptor-ablative agents” (The Ohio State University Research Foundation, priority 2008, dated 2011).
Read-outs that look alike come from different tables or passages of the source.

Assays:
Format in all cases: cell-based
[1] = tested on: AR promoter; assay: AR promoter-luciferase reporter assay in transiently transfected LNCaP cells; details: compounds at 10 μM, 48 h, ciglitazone and Δ2CG at 20 μM
From the text: Transfection and Luciferase assay. The 3.6-kilobase AR promoter-linked reporter plasmid p-3600ARCAT was kindly provided by Dr. Chawnshang Chang (University of Rochester Medical Center, Rochester, N.Y.). The AR promoter gene (−3600 to +550) encompassing the transcription start site was isolated by using PCR to generate hAR-luc with suitable primers. The fragment was subcloned into the pGL3 luciferase reporter vector (Promega, Madison, Wis.) at KpnI and BglII in the multiple cloning site. The PPRE-x3-TK-Luc reporter vector contains three copies of the PPAR-response element (PPRE) upstream of the thymidine kinase promoter-luciferase fusion gene and was kindly provided by Dr. Bruce Spiegelman (Harvard University, Cambridge, Mass.). The pCMVSp1 plasmid was purchased from Origene Technologies, Inc. (Rockville, Md.). LNCaP or PC3 cells were transfected with 5 μg of individual plasmids in an Amaxa Nucleofector using a cell line-specific nucleofector kit according to the manufacturer's protocol (Amaxa Biosystems, Cologne, Germany), and then seeded in 6-well plates at 5×10^5 cells per well for 48 h. The transfection efficiency was determined to be 70-80% by transfecting cells with 2 μg of pmaxGFP plasmid, followed by fluorescence microscopy to measure GFP expression. For each transfection, herpes simplex virus thymidine kinase promoter-driven Renilla reniformis luciferase was used as an internal control for normalization.
For the reporter gene assay, after transfection, cells were cultured in 24-well plates in 10% FBS-supplemented RPMI 1640 medium for 48 h, subject to different treatments for the indicated times, collected, and lysed with passive lysis buffer (Promega). Fifty-μl aliquots of the lysates were added to 96-well plates, and luciferase activity was monitored after adding 100 μl of luciferase substrate (Promega) each well by using a MicroLumatPlus LB96V luminometer (Berthold Technologies, Oak Ridge, Tenn.) with the WinGlow software package. All transfection experiments were carried out in six replicate.

[2] = tested on: LNCaP androgen-responsive prostate cancer cells; assay: MTT cell viability assay, LNCaP cells; details: for IC50: Homo sapiens, 5% FBS, read-out: IC50 for suppressing cell viability
Description: (§1) Cell Counting and Cell Viability Assay. LNCaP or PC-3 cells were placed in six-well plates (2.5×10^5 cells/well) in 10% FBS-supplemented RPMI 1640 for 24 h, and treated with various concentrations of compound 12 for additional 24, 48 and 72 h. Cells were then trypsinized and counted by using a Coulter counter (Model Z1 D/T, Beckman Coulter, Fullerton, Calif.). Cell viability was assessed by using the 3-(4,5-dimethylthiazol-2-yl)-2,5-diphenyl-2H-tetrazolium bromide (MTT) assay in six replicates in 96-well plates. LNCaP or PC-3 cells were seeded at 6000 cells per well in 10% FBS-supplemented RPMI 1640 for 24 h, followed by treatments with various compounds in 5% FBS-supplemented RPMI 1640 at the indicated concentrations. Controls received DMSO at a concentration equal to that in drug-treated cells. After the end of incubation, MTT (0.5 mg/ml) in 10% FBS-supplemented RPMI 1640 was added to each well, and cells were incubated at 37° C. for 2 hours. Medium was removed and the reduced MTT dye was solubilized in DMSO (200 μl/well). Absorbance was determined at 570 nm by a 96-well plate reader.

[3] = tested on: LNCaP and PC-3 cells; assay: Cell counting assay for cell proliferation, LNCaP versus PC-3; details: Coulter counter (FIG. 5B)
Description: as §1

[4] = tested on: LNCaP cells; assay: Flow cytometric cell cycle analysis in LNCaP cells; details: 72 h
Description: Cell Cycle Analysis. LNCaP cells were seeded in 6-well plates ([…]) and treated with different concentrations of compound 12 for 72 h. After extensive washing with PBS, cells were trypsinized followed by fixation in ice-cold 80% ethanol at 4° C. overnight. Cells were then centrifuged for 5 min at 1500×g at room temperature, and stained with propidium iodide (50 μg/ml) and RNase A (100 units/ml) in PBS. Cell cycle phase distributions were determined on a FACScort flow cytometer and analyzed by the ModFitLT V3.0 program.

[5] = tested on: PARP cleavage, caspase 3 and caspase 7 activation; assay: Western blot of apoptosis-related biomarkers in LNCaP cells; details: 72 h

SMILES: CC1(CN2C(=O)S/C(=C\c3ccc(O)c(C(F)(F)F)c3)C2=O)CCCCC1 [Compound 12, 5-(4-Hydroxy-3-trifluoromethyl-benzylidene)-3-(1-methyl-cyclohexylmethyl)-thiazolidine-2,4-dione]
- suppression of AR promoter-luciferase activity / AR transcription (in words) [1]: optimal agents
- inhibition of LNCaP cell viability (in words) ([2]; 48 h): optimal agents
- IC50 ([2]; 48 h): 8 µM
- IC50 ([2]; 72 h): 3 µM
- potency in inhibiting proliferation of LNCaP cells compared to PC-3 cells [3]: at least twofold higher potency
- cell cycle distribution [4]: dose-dependent increase in the sub-G1 population, accompanied by decreases in the G2/M phase
- apoptosis-related biomarkers: PARP cleavage, proteolytic activation of caspase 3 and caspase 7 [5]: dose-dependent effects
